One may read the EC50 as the concentration that produces a half-maximal response. Low readings indicate an effect from little substance, high ones a need for much substance. One may read the IC50 as the concentration that gives 50% inhibition. Lower therefore signals higher potency.

For 4 molecules, LogEC50, EC50 and IC50 results are on record in paper PMC10952433, “A Chemoenzymatic Approach To Produce a Cyclic Analogue of the Analgesic Drug MVIIA (Ziconotide)” (Angewandte Chemie (International Ed. in English), 2023).

The structures appear in SMILES notation.

Assay [1] addresses T1, CaV2.2 (Homo sapiens, UniProt Q00975).
For assay [2], the target named is T1, CaV2.2. In words: cell-based.

T1 sequence (Q00975 whole entry, looked up): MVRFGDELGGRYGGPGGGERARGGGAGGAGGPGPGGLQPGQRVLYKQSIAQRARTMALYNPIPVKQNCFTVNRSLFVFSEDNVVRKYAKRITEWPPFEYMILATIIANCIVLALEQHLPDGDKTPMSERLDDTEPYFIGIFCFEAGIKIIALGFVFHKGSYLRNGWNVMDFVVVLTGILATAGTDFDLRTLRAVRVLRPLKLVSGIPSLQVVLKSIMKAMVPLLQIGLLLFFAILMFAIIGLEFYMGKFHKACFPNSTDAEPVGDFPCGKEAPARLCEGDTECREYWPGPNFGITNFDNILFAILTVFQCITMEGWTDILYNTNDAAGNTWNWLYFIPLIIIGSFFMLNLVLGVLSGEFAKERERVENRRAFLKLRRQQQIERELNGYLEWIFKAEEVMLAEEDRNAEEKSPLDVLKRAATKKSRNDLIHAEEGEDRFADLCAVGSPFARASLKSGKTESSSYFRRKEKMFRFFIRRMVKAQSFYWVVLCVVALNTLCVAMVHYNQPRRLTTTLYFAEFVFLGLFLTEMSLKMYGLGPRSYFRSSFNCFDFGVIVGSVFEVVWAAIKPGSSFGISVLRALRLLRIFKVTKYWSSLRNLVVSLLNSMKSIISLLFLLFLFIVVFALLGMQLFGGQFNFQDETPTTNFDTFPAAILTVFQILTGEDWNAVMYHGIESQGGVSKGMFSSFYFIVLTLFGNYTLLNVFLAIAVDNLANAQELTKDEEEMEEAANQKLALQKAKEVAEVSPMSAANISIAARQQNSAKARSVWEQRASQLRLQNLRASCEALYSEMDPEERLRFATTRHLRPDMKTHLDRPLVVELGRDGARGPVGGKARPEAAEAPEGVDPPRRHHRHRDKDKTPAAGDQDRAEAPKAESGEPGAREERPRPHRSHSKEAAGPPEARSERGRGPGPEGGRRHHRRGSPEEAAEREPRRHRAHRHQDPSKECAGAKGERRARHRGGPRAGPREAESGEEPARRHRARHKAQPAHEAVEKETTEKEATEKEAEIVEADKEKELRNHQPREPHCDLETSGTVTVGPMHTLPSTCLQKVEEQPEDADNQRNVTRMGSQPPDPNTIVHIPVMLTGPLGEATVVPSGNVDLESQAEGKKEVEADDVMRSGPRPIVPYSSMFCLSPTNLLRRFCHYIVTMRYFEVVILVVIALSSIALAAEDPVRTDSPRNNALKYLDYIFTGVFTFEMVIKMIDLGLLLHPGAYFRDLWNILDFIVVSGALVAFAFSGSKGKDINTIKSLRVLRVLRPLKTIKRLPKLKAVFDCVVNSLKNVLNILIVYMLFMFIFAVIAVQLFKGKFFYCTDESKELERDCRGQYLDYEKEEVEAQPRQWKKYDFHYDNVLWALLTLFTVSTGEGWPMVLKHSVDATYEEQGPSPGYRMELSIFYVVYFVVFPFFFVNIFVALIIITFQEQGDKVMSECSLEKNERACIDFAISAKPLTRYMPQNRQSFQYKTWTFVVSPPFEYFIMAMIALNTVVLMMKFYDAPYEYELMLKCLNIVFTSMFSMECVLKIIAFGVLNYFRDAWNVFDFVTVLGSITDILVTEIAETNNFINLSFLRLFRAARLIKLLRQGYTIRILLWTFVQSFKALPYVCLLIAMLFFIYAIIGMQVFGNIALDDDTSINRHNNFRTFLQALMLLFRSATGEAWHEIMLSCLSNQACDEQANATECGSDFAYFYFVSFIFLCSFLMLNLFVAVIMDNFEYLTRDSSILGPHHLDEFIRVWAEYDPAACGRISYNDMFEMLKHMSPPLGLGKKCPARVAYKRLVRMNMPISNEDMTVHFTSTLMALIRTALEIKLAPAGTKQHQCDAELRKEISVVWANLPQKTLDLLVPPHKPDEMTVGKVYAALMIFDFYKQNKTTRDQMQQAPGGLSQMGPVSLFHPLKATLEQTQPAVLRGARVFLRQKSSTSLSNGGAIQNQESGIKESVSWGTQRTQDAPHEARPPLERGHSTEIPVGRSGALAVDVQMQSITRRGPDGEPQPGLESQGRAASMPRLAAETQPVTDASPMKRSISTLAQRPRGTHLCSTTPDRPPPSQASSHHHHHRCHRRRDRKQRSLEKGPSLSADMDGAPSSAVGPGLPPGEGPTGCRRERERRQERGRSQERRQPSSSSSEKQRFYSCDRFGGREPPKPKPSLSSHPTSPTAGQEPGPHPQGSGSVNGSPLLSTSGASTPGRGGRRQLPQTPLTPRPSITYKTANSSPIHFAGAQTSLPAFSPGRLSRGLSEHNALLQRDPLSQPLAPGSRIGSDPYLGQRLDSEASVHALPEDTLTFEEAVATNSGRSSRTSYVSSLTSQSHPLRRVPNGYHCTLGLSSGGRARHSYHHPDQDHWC

For the molecule `CCCC[C@@H]1NC(=O)[C@H](CC(C)C)NC(=O)[C@H](CCCNC(=N)N)NC(=O)[C@H](CO)NC(=O)[C@@H]2CSSC[C@@H]3NC(=O)[C@H](CO)NC(=O)CNC(=O)[C@H]([C@@H](C)O)NC(=O)[C@H](CSSC[C@H](NC(=O)[C@H](C)NC(=O)CNC(=O)CN)C(=O)N[C@@H](CCCCN)C(=O)NCC(=O)N[C@@H](CCCCN)C(=O)NCC(=O)N[C@@H](C)C(=O)N[C@@H](CCCCN)C(=O)N2)NC(=O)[C@H](CSSC[C@@H](C(=O)N[C@@H](C)C(=O)NCC(=O)N[C@@H](CC(N)=O)C(=O)NCC(=O)N[C@@H](CC(C)C)C(=O)O)NC(=O)[C@H](CCCCN)NC(=O)CNC(=O)[C@H](CO)NC(=O)[C@H](CCCNC(=N)N)NC3=O)NC(=O)[C@H](CC(=O)O)NC(=O)[C@H](Cc2ccc(O)cc2)NC1=O` [M-6], the LogEC50 at CaV2.2 [1] is on record as -7.2. The molecule also registered an EC50 on CaV2.2 [2] of 67.8 nM.
The corresponding values for `CCCC[C@@H]1NC(=O)[C@H](CC(C)C)NC(=O)[C@H](CCCNC(=N)N)NC(=O)[C@H](CO)NC(=O)[C@@H]2CSSC[C@@H]3NC(=O)[C@H](CO)NC(=O)CNC(=O)[C@H]([C@@H](C)O)NC(=O)[C@H](CSSC[C@H](NC(=O)[C@H](C)NC(=O)[C@H](C)NC(=O)CNC(=O)CN)C(=O)N[C@@H](CCCCN)C(=O)NCC(=O)N[C@@H](CCCCN)C(=O)NCC(=O)N[C@@H](C)C(=O)N[C@@H](CCCCN)C(=O)N2)NC(=O)[C@H](CSSC[C@@H](C(=O)N[C@@H](C)C(=O)NCC(=O)N[C@@H](CC(N)=O)C(=O)NCC(=O)N[C@@H](CC(C)C)C(=O)O)NC(=O)[C@H](CCCCN)NC(=O)CNC(=O)[C@H](CO)NC(=O)[C@H](CCCNC(=N)N)NC3=O)NC(=O)[C@H](CC(=O)O)NC(=O)[C@H](Cc2ccc(O)cc2)NC1=O` [M-7] are -7.3 and 55.5 nM.
As to `CCCC[C@@H]1NC(=O)[C@H](CC(C)C)NC(=O)[C@H](CCCNC(=N)N)NC(=O)[C@H](CO)NC(=O)[C@@H]2CSSC[C@@H]3NC(=O)[C@H](CO)NC(=O)CNC(=O)[C@H]([C@@H](C)O)NC(=O)[C@H](CSSC[C@H](NC(=O)[C@H](C)NC(=O)[C@H](C)NC(=O)CNC(=O)CN)C(=O)N[C@@H](CCCCN)C(=O)NCC(=O)N[C@@H](CCCCN)C(=O)NCC(=O)N[C@@H](C)C(=O)N[C@@H](CCCCN)C(=O)N2)NC(=O)[C@H](CSSC[C@@H](C(=O)N[C@@H](C)C(=O)NCC(=O)NCC(=O)N[C@@H](CC(N)=O)C(=O)NCC(=O)N[C@@H](CC(C)C)C(=O)O)NC(=O)[C@H](CCCCN)NC(=O)CNC(=O)[C@H](CO)NC(=O)[C@H](CCCNC(=N)N)NC3=O)NC(=O)[C@H](CC(=O)O)NC(=O)[C@H](Cc2ccc(O)cc2)NC1=O` [M-8], the LogEC50 on CaV2.2 [1] is -7.1. The molecule also showed an EC50 at CaV2.2 [2] of 78.7 nM.
Take `CCCC[C@@H]1NC(=O)[C@H](CC(C)C)NC(=O)[C@H](CCCNC(=N)N)NC(=O)[C@H](CO)NC(=O)[C@@H]2CSSC[C@@H]3NC(=O)[C@H](CO)NC(=O)CNC(=O)[C@H]([C@@H](C)O)NC(=O)[C@H](CSSC[C@H](NC(=O)[C@H](C)NC(=O)[C@H](C)NC(=O)CNC(=O)CN)C(=O)N[C@@H](CCCCN)C(=O)NCC(=O)N[C@@H](CCCCN)C(=O)NCC(=O)N[C@@H](C)C(=O)N[C@@H](CCCCN)C(=O)N2)NC(=O)[C@H](CSSC[C@@H](C(=O)N[C@@H](C)C(=O)N[C@@H](C)C(=O)NCC(=O)NCC(=O)N[C@@H](CC(N)=O)C(=O)NCC(=O)N[C@@H](CC(C)C)C(=O)O)NC(=O)[C@H](CCCCN)NC(=O)CNC(=O)[C@H](CO)NC(=O)[C@H](CCCNC(=N)N)NC3=O)NC(=O)[C@H](CC(=O)O)NC(=O)[C@H](Cc2ccc(O)cc2)NC1=O` [M-9]: at CaV2.2 [1], the LogEC50 is reported as -7.5. At CaV2.2 [2], the EC50 stood at 31.9 nM and the IC50 turned out to be 31.9 ± 2.6 nM.
